The assay deals with LDL cholesterol. Briefly: LDL cholesterol oxidation lag time, copper ions, absorbance at 234 nm. It counts as biochemical, human. The note with it: copper ions 5 μmole/L. As for the experimental part: The antioxidant properties of a dietary supplement can be measured using an assay for LDL cholesterol oxidation. Briefly, blood samples are drawn and LDL cholesterol is isolated. The isolated LDL cholesterol is combined with a dietary supplement to be evaluated, and the time (i.e., lag time) before cholesterol oxidation is observed is measured. Copper ions accelerate the production of conjugated dienes due to oxidation, while antioxidants prolong the onset of diene production. Since dienes absorb light at 234 nm, LDL cholesterol oxidation can be monitored by examining the absorbance at 234 nm as a function of time. Thus, the antioxidant properties of, for example, a dietary supplement or other compound can be evaluated by determining the time elapsed before LDL cholesterol oxidation is observed.
LDL cholesterol oxidation is usually determined by measuring absorbance at 234 nm (AbS234 nm) as a function of time under oxidative conditions. The antioxidant effectiveness of various grape seed extracts was determined. LDL cholesterol was prepared from human volunteer blood samples as described above. Isolated LDL cholesterol was then mixed with a buffer, vitamin E, or grape seed extract. Copper ions (5 μmole/L final concentration) were added to each sample. Grape seed extracts were prepared at 0.5 or 1.0 mg/L final concentration. […]

Consider Vitamin E, for which the “time LDL cholesterol protected from oxidation” value is given as “about 125 min”. Moreover, the “LDL oxidation lag time” value (grape seed extract 0.5 mg/L, vitamin E amount comparable to blood level after 400 IU) is on record as 125 min.

The values are drawn from US20020192314A1, “Dietary supplement compositions” (priority 2001, published 2002).
